Experiments:
Type in all cases: in vivo, rat
GABAR α4 subunit = test: Western blot of α4 subunit in hippocampus after steroid and ethanol administration; conditions: steroid withdrawal after 21 days progesterone
Procedure: Animals were administered steroids using one of two protocols: (i) For the 48 hour steroid administration protocol, animals were injected with 10 mg/kg 3α, 5β THP in oil, i.p., on a daily basis for three days and sacrificed 1-2 hour following the final injection. Controls were injected with oil vehicle. […] At this time, the capsule was removed and the animals were injected with 17 β estradiol (2 μgs/animal) in order to reset their cycle. Animals were sacrificed 24 hours later. […] In all cases, implantation and removal of capsules were performed under halothane anesthesia. […] Therefore, this study employed the 5β isomer of the steroid.
In some groups of animals, either ethanol (0.5 g/kg in saline) or saline vehicle was administered i.p. (3×, every 40 minutes) for the final 2 hours of the respective steroid administration or withdrawal paradigm. The use of multiple injections of low doses of ethanol would approximate ethanol consumption in the human more closely than would a single injection. For the 48 hour steroid administration paradigm, animals received their first ethanol injection immediately after the steroid injection, and subsequent injections at 40 minute intervals. In all cases, animals were sacrificed 40 minutes after the final ethanol injection (2 hours after the first ethanol injection and final steroid injection). All animal protocols were carried out with the approval of the Institutional Animal Care and Use Committee.
Hippocampi removed from steroid or vehicle-treated animals were homogenized, and membranes prepared as previously described (65). Following electrophoresis on 8% SDS polyacrylamide gels, membranes were transferred to a nitrocellulose membrane (Bio-Rad, Hercules, Calif.). α4 subunit levels were detected by evaluating the band density at 67 kDa after probing with a polyclonal antibody (64). Membranes were incubated for 1-2 hours at room temperature with a 1:5000 dilution of horseradish peroxidase-conjugated donkey anti-rabbit IgG (Amersham, Arlington Heights, Ill.), and visualized with enhanced chemiluminescence with varying concentrations of protein in the linear range. Immunoreactive band densities were quantified using a CCD camera (UMAX Scanner) and one-Dscan software, which uses multiple Gaussian fits to achieve accurate band density profiles.

[1] = tested on: δ and α4 GABAA receptor subunit proteins; test: Western blot of δ and α4 subunits in hippocampus after progesterone withdrawal
Procedure: (§1) Crystalline progesterone was administered via a silicone capsule ( 1/16″ i.d., ⅛″ o.d.) implanted subcutaneously (10 mm length/100 gm body weight) in female rats (110-120 grams, in vitro studies; 220-250 grams, behavioral studies) for 21 days. Control rats were implanted with an empty capsule. […] Animals were tested 24 hours after removal of the implant.
Membranes prepared from hippocampal tissue were solubilized and electrophoresed on 9% SDS-polyacrylamide gels before transfer to a polyvinyldifluoride membrane, as described (65,69). Polyclonal antiserum against the δ subunit (Asr^318-Leu^400) was supplied by Dr. R. McKernan (Merck)(56) and is visualized as a 54 kDa band. Membranes were also probed with an antibody for the α4 GABAA receptor subunit (67 kDa) (64), developed according to a previously described protocol (38), and a commercial antibody for the control protein GAPDH (glyceraldehyde-3-phosphate dehydrogenase; 36 kDa). Membranes were incubated for 1-2 hours at room temperature with 1:10,000 (α4), 1:7,000 (δ) or 1:20,000 (GAPDH) dilution of antibody followed by addition of 1:5,000 horseradish-peroxidase-conjugated donkey anti-rabbit IgG (Amersham). Band densities were quantified using densitometry with One-Dscan software after normalization to the GAPDH control. Reagents were obtained from Sigma/Genosys.

δ subunit mRNA = test: Semi-quantitative RT-PCR of δ subunit in hippocampus; conditions: after progesterone withdrawal
Procedure: as §1
Following isolation of total RNA from hippocampus, reverse transcription (SuperScript II, Rnase RT, GibcoBRL) yielded complementary DNA (cDNA) which was amplified with PCR methods (65) using oligonucleotide primers for the δ subunit (398 bp)(70) and GAPDH (657 bp, Operon). Twenty three to thirty amplification cycles were used for two different concentrations of cDNA (25 or 50 ng) to detect band densities within a linear range (15). Following gel electrophoresis (FMC Bioproducts), the density of DNA bands stained with ethidium bromide was quantified and normalized to the GAPDH control.

Structure (SMILES): CC(=O)[C@H]1CC[C@H]2[C@@H]3CCC4=CC(=O)CC[C@]4(C)[C@H]3CC[C@]12C [progesterone]
- increase of α4 expression (GABAR α4 subunit): threefold
- expression of α4 subunit protein in hippocampus [1]: three-fold
- expression of δ subunit protein in hippocampus [1]: three-fold
- δ subunit mRNA in hippocampus (δ subunit mRNA): three-fold
